Assay results as given in PubChem BioAssay (NCI).
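How tested: cells in 96-well plates exposed to compound for 48 hours at five concentrations. At the TGI there is no net growth.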

Columns and labels:
Assay in all cases: DTP human tumour cell line panel, 48 h
HOP-62 NSCLC = test system: HOP-62 NSCLC
HL-60(TB) leukemia = test system: HL-60(TB) leukemia
SF-539 CNS = test system: SF-539 CNS
RPMI-8226 leukemia = test system: RPMI-8226 leukemia
OVCAR-8 ovarian = test system: OVCAR-8 ovarian
SN12C renal = test system: SN12C renal
SW-620 colon = test system: SW-620 colon
RXF 393 renal = test system: RXF 393 renal
BT-549 breast = test system: BT-549 breast
CCRF-CEM leukemia = test system: CCRF-CEM leukemia

SMILES	TGI (HOP-62 NSCLC)	TGI (HL-60(TB) leukemia)	TGI (SF-539 CNS)	TGI (RPMI-8226 leukemia)	TGI (OVCAR-8 ovarian)	TGI (SN12C renal)	TGI (SW-620 colon)	TGI (RXF 393 renal)	TGI (BT-549 breast)	TGI (CCRF-CEM leukemia)
CC1=[N+]([O-])C2(CCCC2)N(O)C1(C)C	> 100 µM	> 100 µM	> 100 µM	> 100 µM	> 100 µM	> 100 µM	> 100 µM	> 100 µM	–	–
CCOP(=O)(CC1OC(CO)C(O)C1O)OCC (configuration not stated)	> 100 µM	> 100 µM	> 100 µM	> 100 µM	–	> 100 µM	> 100 µM	> 100 µM	> 100 µM	> 100 µM
Fc1ccc(OCc2ccc3nc(-c4ccccc4)c(Cl)nc3c2)cc1	31.3 µM	> 100 µM	51.8 µM	> 100 µM	> 100 µM	> 100 µM	> 100 µM	–	85.8 µM	89.8 µM
CC(Br)CN(CC(C)Br)c1ccc2c(c1)Cc1ccccc1-2 (configuration not stated)	23.9 µM	15.6 µM	–	71.8 µM	25.2 µM	26.7 µM	40.2 µM	28 µM	35.1 µM	> 100 µM
CN1C2CCC1C(CO)C(=O)C2 (configuration not stated)	> 100 µM	26.2 µM	52.9 µM	54.1 µM	> 100 µM	–	43.2 µM	> 100 µM	> 100 µM	27.4 µM
CCc1nc2c([nH]1)C(=O)c1ccccc1C2=O	> 100 µM	94.7 µM	> 100 µM	–	> 100 µM	> 100 µM	> 100 µM	> 100 µM	–	> 100 µM
C[C@@](Br)(C(=O)O)[C@H](Br)C(=O)O	> 100 µM	> 100 µM	–	> 100 µM	> 100 µM	> 100 µM	> 100 µM	> 100 µM	> 100 µM	> 100 µM
CC(=O)Nc1ccc2c(c1)nc1c3ccccc3ccn21	> 100 µM	> 100 µM	> 100 µM	–	> 100 µM	> 100 µM	> 100 µM	> 100 µM	> 100 µM	> 100 µM
Cn1c(=O)c2[nH]c(Nc3cccc(Cl)c3)nc2n(C)c1=O	> 10 µM	> 10 µM	–	> 10 µM	> 10 µM	> 10 µM	> 10 µM	8.76 µM	–	> 10 µM
CCC1(c2ccc(OC)c(OC)c2)CCN2C(=O)C(O)CC21 (configuration not stated)	> 100 µM	–	–	–	–	> 100 µM	> 100 µM	> 100 µM	> 100 µM	> 100 µM
CCOC(=O)C(NC(=O)CC)(Nc1ccccc1F)C(F)(F)F (configuration not stated)	–	> 100 µM	> 100 µM	> 100 µM	> 100 µM	> 100 µM	> 100 µM	> 100 µM	> 100 µM	–
C=C1C[C@@H]2CC[C@@]34CC5O[C@H]6C(O[C@H]7CC[C@H](CC(=O)O[C@@H]8[C@@H](C)[C@@H]9O[C@@H]%10C[C@]%11(C[C@@H]%12O[C@]%13(C[C@H](C)[C@@H]%14O[C@@H]%15CC(C(COC(C)=O)OC(C)=O)O[C@@H]%15C[C@@H]%14O%13)C[C@H](C)[C@@H]%12O%11)O[C@@H]%10C[C@@H]9O[C@H]8CC8O[C@@H](CC[C@@H]1O2)C[C@@H](C)C8(O)CO)O[C@@H]7[C@@H]6O3)[C@H]5O4 (some centres not stated)	> 1 µM	–	–	> 1 µM	> 1 µM	> 1 µM	> 1 µM	–	0.751 µM	> 1 µM
CN(C)C(=O)/N=C1\SC(=Nc2ccccc2)C(=Nc2ccccc2)N1c1ccc([N+](=O)[O-])cc1	> 100 µM	> 100 µM	–	> 100 µM	> 100 µM	> 100 µM	–	> 100 µM	> 100 µM	> 100 µM
CCC(C)C(NC(=O)C(CCCC[N+](=N)N)NC(=O)C(CCCC[N+](=N)N)NC(=O)c1ccc(OC)cc1)C(=O)NC(CCCC[N+](=N)N)C(=O)N1CCCC1C(=O)NC(CCCCN)C(=O)NC(CC(C)C)C(N)=O (configuration not stated)	> 100 µM	–	> 100 µM	> 100 µM	> 100 µM	> 100 µM	> 100 µM	> 100 µM	> 100 µM	> 100 µM
O=C1C=CC(=O)c2c(O)c(N3CCN(c4ncccn4)CC3)c(Cl)c(O)c21	5.63 µM	0.766 µM	3.63 µM	–	6.37 µM	3.43 µM	2.97 µM	3.51 µM	3.86 µM	4.24 µM
CN(C)CN1C(=O)/C(=N\n2c(-c3ccncc3)n[nH]c2=S)c2ccccc21	84.7 µM	37 µM	52.4 µM	–	65.2 µM	> 100 µM	> 100 µM	32.4 µM	> 100 µM	> 100 µM
Cc1ccc2nc(Nc3ccccc3C)c(Nc3ccccc3C)nc2c1	> 100 µM	> 74.6 µM	> 100 µM	> 100 µM	> 100 µM	> 100 µM	> 100 µM	> 58.1 µM	–	> 80.6 µM
CC(C)(C)C#CI1OC(=O)c2ccccc21	27.2 µM	–	7.13 µM	5.11 µM	23.3 µM	19 µM	10.3 µM	30.4 µM	11.7 µM	6.09 µM
Clc1sc(Cl)c2c1[C@H](Br)C[C@@H]2Cl	> 100 µM	–	37.1 µM	> 100 µM	99 µM	85.3 µM	45.6 µM	87.6 µM	40.3 µM	52.9 µM
COc1ccc2c(c1)-c1nc(=S)n(CCN(C)C)c3ccc([N+](=O)[O-])c(c13)N2	2.24 µM	–	2.5 µM	2.76 µM	2.2 µM	2.05 µM	3.07 µM	3.3 µM	24 µM	–
OCCN(CCO)c1ncnc2c1sc(=S)n2-c1ccccc1	> 100 µM	> 100 µM	> 100 µM	> 100 µM	> 100 µM	> 100 µM	> 100 µM	> 100 µM	–	> 100 µM
CC(=O)N=S(NC(=O)c1ccc(C)cc1)C(Cl)(Cl)Cl (configuration not stated)	> 100 µM	26.9 µM	> 100 µM	> 100 µM	33.1 µM	> 100 µM	36.3 µM	> 100 µM	–	51.5 µM
